Columns and labels:
Assay in all cases: radiometric filter-binding kinase assay
[1] = molecular target: ERBB4 (human) (UniProt Q15303)
[2] = molecular target: CSK (human) (UniProt P41240)
[3] = molecular target: MAP3K1 (human) (UniProt Q13233)
[4] = molecular target: PIM3 (human) (UniProt Q86V86)
[5] = molecular target: PAK4 (human) (UniProt O96013)
[6] = molecular target: EPHB2 (human) (UniProt P29323)
[7] = molecular target: MAPK15 (human) (UniProt Q8TD08)
[8] = molecular target: LRRK2 (human) (UniProt Q5S007)
[9] = molecular target: MAPKAPK2 (human) (UniProt P49137)
[10] = molecular target: MAPK13 (human) (UniProt O15264)
[11] = molecular target: INSR (human) (UniProt P06213)
[12] = molecular target: TTK (human) (UniProt P33981)
[13] = molecular target: CLK2 (human) (UniProt P49760)
[14] = molecular target: BRSK2 (human) (UniProt Q8IWQ3)
[15] = molecular target: CaMK1 (human) (UniProt Q14012)
[16] = molecular target: DYRK3 (human) (UniProt O43781)
[17] = molecular target: PRKCA (human) (UniProt P17252)
[18] = molecular target: PHKG1 (human) (UniProt Q16816)
[19] = molecular target: MAP3K11 (human) (UniProt Q16584)
[20] = molecular target: MAPKAPK3 (human) (UniProt Q16644)
[21] = molecular target: JAK2 JH1 JH2 (human) (UniProt O60674)
[22] = molecular target: STK3 (human) (UniProt Q13188)
[23] = molecular target: MARK4 (human) (UniProt Q96L34)
[24] = molecular target: DYRK2 (human) (UniProt Q92630)
[25] = test system: PRKAA1 or PRKAA2 (rat); conditions: accession and sequence are those of the human protein
[26] = molecular target: MAPK10 (human) (UniProt P53779)
[27] = molecular target: SRPK1 (human) (UniProt Q96SB4)
[28] = molecular target: FGFR1 (human) (UniProt P11362)
[29] = molecular target: IKBKB (human) (UniProt O14920)
[30] = molecular target: RIPK2 (human) (UniProt O43353)
[31] = molecular target: BRSK1 (human) (UniProt Q8TDC3)
[32] = molecular target: AURKA (human) (UniProt O14965)
[33] = molecular target: MAPKAPK5 (human) (UniProt Q8IW41)

Sequence of AURKA (human) (O14965 whole entry, looked up): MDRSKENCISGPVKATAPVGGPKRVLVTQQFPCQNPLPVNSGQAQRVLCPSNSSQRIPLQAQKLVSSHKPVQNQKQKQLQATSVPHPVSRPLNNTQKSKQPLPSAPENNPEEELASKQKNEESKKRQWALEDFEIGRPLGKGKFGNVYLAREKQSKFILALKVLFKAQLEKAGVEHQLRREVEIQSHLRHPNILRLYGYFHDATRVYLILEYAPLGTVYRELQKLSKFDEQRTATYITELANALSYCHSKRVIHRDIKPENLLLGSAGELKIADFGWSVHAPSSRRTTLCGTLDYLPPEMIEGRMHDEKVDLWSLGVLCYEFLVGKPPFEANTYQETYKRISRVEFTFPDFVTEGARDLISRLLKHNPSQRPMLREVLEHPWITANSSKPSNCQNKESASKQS
Sequence of MAPKAPK3 (human) (Q16644 whole entry, looked up): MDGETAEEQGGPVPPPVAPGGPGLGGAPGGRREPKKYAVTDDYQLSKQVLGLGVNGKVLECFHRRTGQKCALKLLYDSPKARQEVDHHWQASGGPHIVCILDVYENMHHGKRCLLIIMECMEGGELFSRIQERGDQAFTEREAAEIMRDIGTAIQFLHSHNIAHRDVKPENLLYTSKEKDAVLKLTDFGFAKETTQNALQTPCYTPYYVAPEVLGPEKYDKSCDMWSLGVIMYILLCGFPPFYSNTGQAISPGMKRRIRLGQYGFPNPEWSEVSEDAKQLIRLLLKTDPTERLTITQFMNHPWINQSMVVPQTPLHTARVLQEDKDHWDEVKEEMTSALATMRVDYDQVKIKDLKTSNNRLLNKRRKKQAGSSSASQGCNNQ
Sequence of IKBKB (human) (O14920 whole entry, looked up): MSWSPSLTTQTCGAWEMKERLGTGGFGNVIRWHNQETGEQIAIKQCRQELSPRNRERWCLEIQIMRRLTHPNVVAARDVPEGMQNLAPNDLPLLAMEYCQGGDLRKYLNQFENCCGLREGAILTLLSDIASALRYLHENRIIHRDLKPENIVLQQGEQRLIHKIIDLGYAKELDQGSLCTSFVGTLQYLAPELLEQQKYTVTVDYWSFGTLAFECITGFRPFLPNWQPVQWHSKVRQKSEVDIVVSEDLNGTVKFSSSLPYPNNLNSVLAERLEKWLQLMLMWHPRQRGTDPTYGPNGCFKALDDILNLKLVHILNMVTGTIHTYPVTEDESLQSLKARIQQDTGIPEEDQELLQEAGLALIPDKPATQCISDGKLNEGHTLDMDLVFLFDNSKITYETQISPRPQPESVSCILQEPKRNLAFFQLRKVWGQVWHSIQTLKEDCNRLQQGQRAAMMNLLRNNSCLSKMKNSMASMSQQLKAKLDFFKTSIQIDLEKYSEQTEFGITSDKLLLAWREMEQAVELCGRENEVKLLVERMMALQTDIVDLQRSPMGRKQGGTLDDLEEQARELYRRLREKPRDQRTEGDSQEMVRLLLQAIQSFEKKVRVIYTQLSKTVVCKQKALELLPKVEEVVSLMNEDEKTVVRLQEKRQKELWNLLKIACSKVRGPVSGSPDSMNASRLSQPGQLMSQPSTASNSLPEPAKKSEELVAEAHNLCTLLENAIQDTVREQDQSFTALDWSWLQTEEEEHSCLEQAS
Sequence of DYRK3 (human) (O43781 whole entry, looked up): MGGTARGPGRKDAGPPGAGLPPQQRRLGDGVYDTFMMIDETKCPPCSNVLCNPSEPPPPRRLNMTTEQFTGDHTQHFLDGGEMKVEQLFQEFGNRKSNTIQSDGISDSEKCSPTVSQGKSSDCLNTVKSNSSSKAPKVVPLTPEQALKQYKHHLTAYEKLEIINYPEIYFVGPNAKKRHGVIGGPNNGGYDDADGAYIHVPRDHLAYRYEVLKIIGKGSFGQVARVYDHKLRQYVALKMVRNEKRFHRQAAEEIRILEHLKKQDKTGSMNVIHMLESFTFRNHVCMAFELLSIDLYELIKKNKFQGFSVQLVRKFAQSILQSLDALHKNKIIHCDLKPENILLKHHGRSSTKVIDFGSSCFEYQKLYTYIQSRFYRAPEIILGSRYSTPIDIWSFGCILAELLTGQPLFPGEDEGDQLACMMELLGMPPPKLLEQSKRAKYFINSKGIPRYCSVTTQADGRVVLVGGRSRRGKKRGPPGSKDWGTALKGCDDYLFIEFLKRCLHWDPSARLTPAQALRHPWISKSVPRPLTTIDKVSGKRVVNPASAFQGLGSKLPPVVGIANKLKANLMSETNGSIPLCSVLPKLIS
Sequence of MAPK15 (human) (Q8TD08 whole entry, looked up): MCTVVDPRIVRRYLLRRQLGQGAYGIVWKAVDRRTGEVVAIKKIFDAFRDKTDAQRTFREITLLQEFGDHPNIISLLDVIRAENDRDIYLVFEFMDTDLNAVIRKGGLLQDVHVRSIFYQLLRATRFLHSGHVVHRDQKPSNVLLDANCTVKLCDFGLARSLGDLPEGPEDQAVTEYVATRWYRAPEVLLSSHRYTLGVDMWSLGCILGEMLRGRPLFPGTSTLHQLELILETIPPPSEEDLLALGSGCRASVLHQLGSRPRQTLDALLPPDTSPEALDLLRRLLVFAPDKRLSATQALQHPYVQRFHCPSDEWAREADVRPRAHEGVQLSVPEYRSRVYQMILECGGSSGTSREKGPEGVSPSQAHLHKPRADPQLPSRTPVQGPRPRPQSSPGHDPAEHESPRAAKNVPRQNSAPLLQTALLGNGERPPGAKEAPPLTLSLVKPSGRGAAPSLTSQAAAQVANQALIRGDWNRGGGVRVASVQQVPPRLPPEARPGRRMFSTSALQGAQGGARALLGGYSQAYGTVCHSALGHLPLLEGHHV
Sequence of MAP3K1 (human) (Q13233 whole entry, looked up): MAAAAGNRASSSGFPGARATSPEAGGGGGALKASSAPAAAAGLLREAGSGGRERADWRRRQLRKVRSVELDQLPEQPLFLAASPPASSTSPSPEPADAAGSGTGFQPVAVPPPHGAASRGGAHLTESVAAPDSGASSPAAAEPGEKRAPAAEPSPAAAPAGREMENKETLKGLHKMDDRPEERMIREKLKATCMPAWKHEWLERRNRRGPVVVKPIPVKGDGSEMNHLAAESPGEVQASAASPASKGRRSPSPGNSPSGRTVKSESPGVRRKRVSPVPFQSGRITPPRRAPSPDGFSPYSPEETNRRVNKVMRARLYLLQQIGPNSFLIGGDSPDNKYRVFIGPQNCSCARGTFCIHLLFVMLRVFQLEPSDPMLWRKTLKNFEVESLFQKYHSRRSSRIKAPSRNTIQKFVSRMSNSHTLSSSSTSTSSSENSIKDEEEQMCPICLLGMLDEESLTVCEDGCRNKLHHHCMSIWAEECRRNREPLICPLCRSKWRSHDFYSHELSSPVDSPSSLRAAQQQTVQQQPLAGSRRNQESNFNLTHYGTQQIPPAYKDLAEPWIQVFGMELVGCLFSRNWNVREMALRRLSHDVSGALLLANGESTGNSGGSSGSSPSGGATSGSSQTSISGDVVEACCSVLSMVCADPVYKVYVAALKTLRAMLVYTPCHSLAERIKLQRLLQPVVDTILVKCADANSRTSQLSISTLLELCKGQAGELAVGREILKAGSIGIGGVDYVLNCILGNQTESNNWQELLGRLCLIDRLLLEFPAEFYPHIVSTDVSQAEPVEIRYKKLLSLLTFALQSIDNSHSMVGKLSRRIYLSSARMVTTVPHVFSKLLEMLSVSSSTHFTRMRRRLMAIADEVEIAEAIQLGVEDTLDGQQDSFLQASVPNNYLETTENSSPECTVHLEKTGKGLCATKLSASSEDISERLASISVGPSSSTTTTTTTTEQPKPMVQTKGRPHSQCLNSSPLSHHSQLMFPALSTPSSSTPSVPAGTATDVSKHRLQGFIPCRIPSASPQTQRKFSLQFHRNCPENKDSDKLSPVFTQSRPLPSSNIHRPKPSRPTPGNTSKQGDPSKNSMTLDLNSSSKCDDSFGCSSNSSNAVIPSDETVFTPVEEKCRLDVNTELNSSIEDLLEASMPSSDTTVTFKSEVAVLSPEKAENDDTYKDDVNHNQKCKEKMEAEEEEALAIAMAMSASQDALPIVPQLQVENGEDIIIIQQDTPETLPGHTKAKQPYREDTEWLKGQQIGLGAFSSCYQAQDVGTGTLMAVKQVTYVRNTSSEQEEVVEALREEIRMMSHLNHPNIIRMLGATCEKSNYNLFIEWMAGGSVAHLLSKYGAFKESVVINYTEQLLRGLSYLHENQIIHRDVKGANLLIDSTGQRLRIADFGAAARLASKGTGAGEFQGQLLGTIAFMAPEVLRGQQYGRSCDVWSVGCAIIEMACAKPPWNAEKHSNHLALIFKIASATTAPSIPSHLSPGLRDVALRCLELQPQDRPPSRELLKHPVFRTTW
Sequence of MAPK13 (human) (O15264 whole entry, looked up): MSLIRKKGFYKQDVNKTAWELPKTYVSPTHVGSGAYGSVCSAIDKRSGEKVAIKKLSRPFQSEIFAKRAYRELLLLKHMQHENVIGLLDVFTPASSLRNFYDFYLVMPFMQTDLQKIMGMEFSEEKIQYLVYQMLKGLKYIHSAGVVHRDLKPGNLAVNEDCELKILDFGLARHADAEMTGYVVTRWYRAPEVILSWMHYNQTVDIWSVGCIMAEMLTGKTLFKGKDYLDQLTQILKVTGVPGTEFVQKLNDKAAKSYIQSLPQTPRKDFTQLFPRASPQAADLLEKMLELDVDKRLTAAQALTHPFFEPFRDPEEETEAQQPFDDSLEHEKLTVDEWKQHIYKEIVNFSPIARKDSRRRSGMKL

COc1cc(C(=O)N2CCC(N3CCN(C)CC3)CC2)ccc1Nc1ncc2c(n1)N(C)c1ccccc1C(=O)N2C
residual activity ([1]; compound 1.0 µM): 68% | residual activity ([1]; compound 10.0 µM): 72% | residual activity ([2]; compound 1.0 µM): 70% | residual activity ([2]; compound 10.0 µM): 80% | residual activity ([3]; compound 1.0 µM): 87% | residual activity ([3]; compound 10.0 µM): 83% | residual activity ([4]; compound 1.0 µM): 97% | residual activity ([4]; compound 10.0 µM): 76% | residual activity ([5]; compound 1.0 µM): 94% | residual activity ([5]; compound 10.0 µM): 108% | residual activity ([6]; compound 1.0 µM): 96% | residual activity ([6]; compound 10.0 µM): 93% | residual activity ([7]; compound 1.0 µM): 86% | residual activity ([7]; compound 10.0 µM): 104% | IC50 [8]: 13 nM | residual activity ([9]; compound 1.0 µM): 86% | residual activity ([9]; compound 10.0 µM): 84% | residual activity ([10]; compound 1.0 µM): 102% | residual activity ([10]; compound 10.0 µM): 106% | residual activity ([11]; compound 1.0 µM): 104% | residual activity ([11]; compound 10.0 µM): 103% | residual activity ([12]; compound 1.0 µM): 84% | residual activity ([12]; compound 10.0 µM): 91% | residual activity ([13]; compound 1.0 µM): 76% | residual activity ([13]; compound 10.0 µM): 69% | residual activity ([14]; compound 1.0 µM): 89% | residual activity ([14]; compound 10.0 µM): 87% | residual activity ([15]; compound 1.0 µM): 75% | residual activity ([15]; compound 10.0 µM): 43% | residual activity ([16]; compound 1.0 µM): 95% | residual activity ([16]; compound 10.0 µM): 96% | residual activity ([17]; compound 1.0 µM): 95% | residual activity ([17]; compound 10.0 µM): 97% | residual activity ([18]; compound 1.0 µM): 98% | residual activity ([18]; compound 10.0 µM): 59% | residual activity ([19]; compound 1.0 µM): 94% | residual activity ([19]; compound 10.0 µM): 84% | residual activity ([20]; compound 1.0 µM): 85% | residual activity ([20]; compound 10.0 µM): 89% | residual activity ([21]; compound 1.0 µM): 74% | residual activity ([21]; compound 10.0 µM): 80% | residual activity ([22]; compound 1.0 µM): 100% | residual activity ([22]; compound 10.0 µM): 98% | residual activity ([23]; compound 1.0 µM): 94% | residual activity ([23]; compound 10.0 µM): 87% | residual activity ([24]; compound 1.0 µM): 90% | residual activity ([24]; compound 10.0 µM): 98% | residual activity ([25]; compound 1.0 µM): 70% | residual activity ([25]; compound 10.0 µM): 46% | residual activity ([26]; compound 1.0 µM): 92% | residual activity ([26]; compound 10.0 µM): 109% | residual activity ([27]; compound 1.0 µM): 98% | residual activity ([27]; compound 10.0 µM): 110% | residual activity ([28]; compound 1.0 µM): 83% | residual activity ([28]; compound 10.0 µM): 60% | residual activity ([29]; compound 1.0 µM): 103% | residual activity ([29]; compound 10.0 µM): 106% | residual activity ([30]; compound 1.0 µM): 103% | residual activity ([30]; compound 10.0 µM): 101% | residual activity ([31]; compound 1.0 µM): 83% | residual activity ([31]; compound 10.0 µM): 78% | IC50 [32]: 1200 nM | residual activity ([32]; compound 1.0 µM): 33% | residual activity ([32]; compound 10.0 µM): 5% | residual activity ([33]; compound 1.0 µM): 102% | residual activity ([33]; compound 10.0 µM): 107%

— the kinase profiling compilation of Christmann-Franck et al. (2016)
